# From ChEMBL document CHEMBL1201862, “PubChem BioAssay data set” (2004)
#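 The compound was tested at five concentrations on cells cultured in 96-well plates, with a 48-hour exposure period. GI50 marks 50% less growth.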 Calls of active or inactive are those of the source. Rule as the data show it: active = GI50 up to about 1.1 µM and inactive = higher.
# What was measured:
# Experiment in all cases: DTP human tumour cell line panel, 48 h
# [1] = system: MDA-MB-231
# [2] = system: A549
# [3] = system: HT-29
# [4] = system: NCI/ADR-RES
# [5] = system: HCT-15
# [6] = system: Malme-3M
# [7] = system: A498
# [8] = system: HCT-116
# [9] = system: KM12
# [10] = system: NCI-H522
# [11] = system: SF-295
# [12] = system: IGROV-1
# [13] = system: MOLT-4
# [14] = system: MDA-MB-435
# [15] = system: EKVX
# [16] = system: OVCAR-3
# [17] = system: SW-620
# [18] = system: UACC-257
# [19] = system: UO-31
# [20] = system: COLO 205
# [21] = system: SK-MEL-5
# [22] = system: HOP-92
# [23] = system: CAKI-1
# [24] = system: OVCAR-4
# [25] = system: OVCAR-8
# [26] = system: T47D
# [27] = system: RPMI-8226
# [28] = system: SK-MEL-28
# [29] = system: K562
# [30] = system: NCI-H460
# [31] = system: RXF 393
# [32] = system: UACC-62
# [33] = system: SNB-75
# [34] = system: OVCAR-5
# [35] = system: Hs-578T
# [36] = system: DU-145
# [37] = system: ACHN
# [38] = system: SK-MEL-2
# [39] = system: U-251
# [40] = system: HL-60
# [41] = system: M14
# [42] = system: PC-3
# [43] = system: SK-OV-3
# [44] = system: BT-549
# [45] = system: HOP-62
# [46] = system: SR
# [47] = system: CCRF-CEM
# [48] = system: NCI-H23
# [49] = system: SNB-19
# [50] = system: SF-268
# [51] = system: HCC 2998
# [52] = system: TK-10
# [53] = system: LOX IMVI
# [54] = system: 786-0
# [55] = system: NCI-H226
# [56] = system: MCF7
# [57] = system: SN12C
# [58] = system: MDA-N
# [59] = system: SF-539
smiles,measurement,setting,value
O=C1CNc2cc(N3CCOCC3)ccc2N1,GI50,[1],> 100 µM (inactive)
same,GI50,[2],> 100 µM (inactive)
same,GI50,[3],> 100 µM (inactive)
same,GI50,[4],> 100 µM (inactive)
same,GI50,[5],> 100 µM
same,GI50,[6],> 100 µM (inactive)
same,GI50,[7],60.7 µM (inactive)
same,GI50,[8],> 100 µM (inactive)
same,GI50,[9],> 100 µM (inactive)
same,GI50,[10],> 100 µM (inactive)
same,GI50,[11],> 100 µM (inactive)
same,GI50,[12],> 100 µM (inactive)
same,GI50,[13],> 100 µM (inactive)
same,GI50,[14],> 100 µM (inactive)
same,GI50,[15],2.91 µM (inactive)
same,GI50,[16],> 100 µM (inactive)
same,GI50,[17],> 100 µM (inactive)
same,GI50,[18],> 100 µM (inactive)
same,GI50,[19],> 100 µM (inactive)
same,GI50,[20],> 100 µM (inactive)
same,GI50,[21],> 100 µM (inactive)
same,GI50,[22],> 100 µM (inactive)
same,GI50,[23],> 100 µM (inactive)
same,GI50,[24],> 100 µM (inactive)
same,GI50,[25],> 100 µM (inactive)
same,GI50,[26],> 100 µM (inactive)
same,GI50,[27],> 100 µM (inactive)
same,GI50,[28],> 100 µM (inactive)
same,GI50,[29],> 100 µM (inactive)
same,GI50,[30],> 100 µM (inactive)
same,GI50,[31],> 100 µM (inactive)
same,GI50,[32],64.9 µM (inactive)
same,GI50,[33],> 100 µM (inactive)
same,GI50,[34],> 100 µM (inactive)
same,GI50,[35],57.3 µM (inactive)
same,GI50,[36],> 100 µM (inactive)
same,GI50,[37],> 100 µM (inactive)
same,GI50,[38],> 100 µM (inactive)
same,GI50,[39],> 100 µM (inactive)
same,GI50,[40],> 100 µM (inactive)
same,GI50,[41],> 100 µM (inactive)
same,GI50,[42],> 100 µM (inactive)
same,GI50,[43],> 100 µM (inactive)
same,GI50,[44],> 100 µM (inactive)
same,GI50,[45],> 100 µM (inactive)
same,GI50,[46],> 100 µM (inactive)
same,GI50,[47],> 100 µM (inactive)
same,GI50,[48],> 100 µM (inactive)
same,GI50,[49],> 100 µM (inactive)
same,GI50,[50],> 100 µM (inactive)
same,GI50,[51],> 100 µM (inactive)
same,GI50,[52],> 100 µM (inactive)
same,GI50,[53],> 100 µM (inactive)
same,GI50,[54],> 100 µM (inactive)
same,GI50,[55],> 100 µM (inactive)
CC(=O)O[C@H]1CC2C(C3CCC(C(C)CCC(N)=O)[C@]31C)[C@H](OC(C)=O)C[C@@H]1CC3(CC[C@]21C)OOC1(CC[C@]2(C)C4C[C@H](OC(C)=O)[C@]5(C)C(C(C)CCC(N)=O)CCC5C4[C@H](OC(C)=O)C[C@@H]2C1)OO3 (some centres not stated),GI50,[1],1.51 µM (inactive)
same,GI50,[2],1.43 µM (inactive)
same,GI50,[3],1.63 µM (inactive)
same,GI50,[4],2.09 µM (inactive)
same,GI50,[5],1.48 µM
same,GI50,[6],2.61 µM (inactive)
same,GI50,[8],1.33 µM (inactive)
same,GI50,[9],1.66 µM (inactive)
same,GI50,[10],2.18 µM (inactive)
same,GI50,[11],1.53 µM (inactive)
same,GI50,[12],1.69 µM (inactive)
same,GI50,[13],1.11 µM (active)
same,GI50,[14],1.4 µM (inactive)
same,GI50,[15],1.67 µM (inactive)
same,GI50,[16],1.42 µM (inactive)
same,GI50,[17],2.63 µM (inactive)
same,GI50,[18],1.49 µM (inactive)
same,GI50,[19],1.13 µM (inactive)
same,GI50,[20],1.11 µM (active)
same,GI50,[21],1.33 µM (inactive)
same,GI50,[23],1.88 µM (inactive)
same,GI50,[24],1.83 µM (inactive)
same,GI50,[25],1.55 µM (inactive)
same,GI50,[27],1.22 µM (inactive)
same,GI50,[29],1.76 µM (inactive)
same,GI50,[30],1.69 µM (inactive)
same,GI50,[31],1.61 µM (inactive)
same,GI50,[33],1.56 µM (inactive)
same,GI50,[34],1.69 µM (inactive)
same,GI50,[35],2.17 µM (inactive)
same,GI50,[36],1.73 µM (inactive)
same,GI50,[37],1.62 µM (inactive)
same,GI50,[38],1.84 µM (inactive)
same,GI50,[39],1.6 µM (inactive)
same,GI50,[40],1.45 µM (inactive)
same,GI50,[41],1.95 µM (inactive)
same,GI50,[42],1.41 µM (inactive)
same,GI50,[43],2.06 µM (inactive)
same,GI50,[44],1.2 µM (inactive)
same,GI50,[45],2.01 µM (inactive)
same,GI50,[48],1.49 µM (inactive)
same,GI50,[49],2.61 µM (inactive)
same,GI50,[50],1.75 µM (inactive)
same,GI50,[51],0.966 µM (active)
same,GI50,[56],1.58 µM (inactive)
same,GI50,[52],1.8 µM (inactive)
same,GI50,[53],1.4 µM (inactive)
same,GI50,[54],1.55 µM (inactive)
same,GI50,[57],1.79 µM (inactive)
same,GI50,[55],1.33 µM (inactive)
same,GI50,[58],1.65 µM (inactive)
COc1cc2c(cc1OCCCCCCCCN1C(=O)c3cccc4cccc(c34)C1=O)N=C[C@@H]1CCCN1C2=O,GI50,[1],8.63 µM (inactive)
same,GI50,[2],20 µM (inactive)
same,GI50,[3],15.7 µM (inactive)
same,GI50,[4],3.27 µM (inactive)
same,GI50,[5],12.8 µM
same,GI50,[6],21 µM (inactive)
same,GI50,[8],19.1 µM (inactive)
same,GI50,[9],16.3 µM (inactive)
same,GI50,[10],12 µM (inactive)
same,GI50,[11],15.6 µM (inactive)
same,GI50,[12],3.11 µM (inactive)
same,GI50,[13],3.48 µM (inactive)
same,GI50,[14],14.3 µM (inactive)
same,GI50,[15],2.37 µM (inactive)
same,GI50,[16],11.1 µM (inactive)
same,GI50,[17],18.7 µM (inactive)
same,GI50,[18],26.2 µM (inactive)
same,GI50,[19],17.2 µM (inactive)
same,GI50,[20],4.71 µM (inactive)
same,GI50,[21],12.7 µM (inactive)
same,GI50,[23],13.3 µM (inactive)
same,GI50,[24],0.171 µM (active)
same,GI50,[25],14.9 µM (inactive)
same,GI50,[26],73.6 µM (inactive)
same,GI50,[27],2.96 µM (inactive)
same,GI50,[28],17.9 µM (inactive)
same,GI50,[29],3.87 µM (inactive)
same,GI50,[30],20.7 µM (inactive)
same,GI50,[31],12.4 µM (inactive)
same,GI50,[32],13.5 µM (inactive)
same,GI50,[59],3.45 µM (inactive)
same,GI50,[33],1.11 µM (active)
same,GI50,[34],20.4 µM (inactive)
same,GI50,[35],22.1 µM (inactive)
same,GI50,[36],50.2 µM (inactive)
same,GI50,[37],16 µM (inactive)
same,GI50,[38],14.6 µM (inactive)
same,GI50,[39],6.62 µM (inactive)
same,GI50,[40],13.8 µM (inactive)
same,GI50,[41],37.3 µM (inactive)
same,GI50,[42],7.45 µM (inactive)
same,GI50,[43],1.79 µM (inactive)
same,GI50,[44],12.6 µM (inactive)
same,GI50,[45],42 µM (inactive)
same,GI50,[46],4.07 µM (inactive)
same,GI50,[47],2.82 µM (inactive)
same,GI50,[48],15.1 µM (inactive)
same,GI50,[49],35.3 µM (inactive)
same,GI50,[50],15 µM (inactive)
same,GI50,[51],14.2 µM (inactive)
same,GI50,[56],3.71 µM (inactive)
same,GI50,[52],29.7 µM (inactive)
same,GI50,[53],6.89 µM (inactive)
same,GI50,[54],23.6 µM (inactive)
same,GI50,[57],22.2 µM (inactive)
same,GI50,[55],14.7 µM (inactive)
